As a reminder, the IC50 is the concentration that gives 50% inhibition.

These results are taken from patent US20240158392A1 (Janssen Biotech, Inc., priority 2021, published 2024).

The target of the first assay is SIK2 (Homo sapiens, UniProt Q9H0K1). Nature of the assay: SIK2 Enzymatic Assay High Version 2 (High ATP). Type of assay: biochemical.
Sequence of SIK2 (Q9H0K1 whole entry, species assumed): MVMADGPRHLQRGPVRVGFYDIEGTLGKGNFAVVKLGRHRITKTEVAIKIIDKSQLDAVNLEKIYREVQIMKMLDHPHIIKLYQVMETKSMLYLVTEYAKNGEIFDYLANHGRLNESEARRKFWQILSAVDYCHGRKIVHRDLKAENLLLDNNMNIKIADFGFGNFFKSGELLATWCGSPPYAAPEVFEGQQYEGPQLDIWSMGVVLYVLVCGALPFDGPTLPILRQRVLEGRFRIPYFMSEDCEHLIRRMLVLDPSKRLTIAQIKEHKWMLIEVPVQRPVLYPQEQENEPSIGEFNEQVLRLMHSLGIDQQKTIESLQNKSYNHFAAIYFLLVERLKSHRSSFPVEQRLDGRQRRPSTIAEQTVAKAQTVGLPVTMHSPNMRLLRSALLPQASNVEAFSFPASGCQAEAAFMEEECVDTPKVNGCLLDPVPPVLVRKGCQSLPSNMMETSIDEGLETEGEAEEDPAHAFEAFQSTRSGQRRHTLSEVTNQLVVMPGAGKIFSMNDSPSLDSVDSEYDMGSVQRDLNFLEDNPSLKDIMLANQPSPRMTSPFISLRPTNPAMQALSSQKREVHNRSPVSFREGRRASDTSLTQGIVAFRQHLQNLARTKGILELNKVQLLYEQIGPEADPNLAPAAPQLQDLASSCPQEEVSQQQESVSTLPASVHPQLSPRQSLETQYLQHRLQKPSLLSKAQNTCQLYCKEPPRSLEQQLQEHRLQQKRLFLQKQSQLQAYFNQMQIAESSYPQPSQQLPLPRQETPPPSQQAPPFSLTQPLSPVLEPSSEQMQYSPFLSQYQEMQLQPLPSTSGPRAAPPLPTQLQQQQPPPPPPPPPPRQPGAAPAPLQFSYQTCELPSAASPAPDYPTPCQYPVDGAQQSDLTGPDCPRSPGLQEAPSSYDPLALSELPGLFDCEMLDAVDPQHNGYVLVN
Conditions: not given
On the procedure:
All steps were performed at room temperature. Compounds were pre-plated onto an assay plate using an Echo acoustic dispenser (Labcyte, E550 or E555) at 80 nL per well. Enzyme prepared in assay buffer at 6 nM (2× final concentration) was added at 4 μL per well using the Multidrop Combi (Thermo Fisher—used for all additions in this assay) to the assay plate, spun for 1 min at 1000 rpm (Allegra 6KR Beckman Coulter centrifuge), and incubated with compound for 30 minutes. Assay buffer containing 6 mM ATP and 400 μM HDAC5tide (2× of final concentration for each substrate) was added at 4 μL per well to the assay plate and then spun as above and incubated for 2 hours. […] ADP-Glo Max Reagent (prepared and aliquoted as per manufacturer instructions) was then added at 8 μL per well, spun and incubated for 2 hours. ADP-Glo Max Detection (prepared and aliquoted as per manufacturer instructions) was added at 8 μL per well to the assay plate, which was spun and incubated for 1 hour. The plate is then read on the Pherastar (BMG Labtech) using a luminescence read. Gain is set between 2200-2500.
On to `COCCNC(=O)c1ccc(Nc2cc3cc(-c4cc(C)ncc4O[C@H]4C[C@H]5COC[C@@H](C4)N5)ccn3n2)nc1` [Example 387, N-(2-methoxyethyl)-6-[[5-[2-methyl-5-[[(1S,5R,7s)-3-oxa-9-azabicyclo[3.3.1]nonan-7-yl]oxy]-4-pyridyl]pyrazolo[1,5-a]pyridin-2-yl]amino]pyridine-3-carboxamide], for which the IC50 came to 0.001 µM.
`Cc1cc(-c2ccn3nc(Nc4ccn(C)n4)cc3c2)c(O[C@H]2C[C@H]3COC[C@@H](C2)N3)cn1` [Example 125, endo-5-(5-(((1R,5S,7s)-3-oxa-9-azabicyclo[3.3.1]nonan-7-yl)oxy)-2-methylpyridin-4-yl)-N-(1-methyl-1H-pyrazol-3-yl)pyrazolo[1,5-a]pyridin-2-amine] gave a half-maximal inhibitory concentration (IC50) of less than 0.000847 µM.
For the molecule `Cc1cc(-c2ccn3nc(Nc4cc(F)n(C)n4)cc3c2)c(O[C@H]2C[C@H]3COC[C@@H](C2)N3)cn1` [Example 397, N-(5-fluoro-1-methyl-pyrazol-3-yl)-5-[2-methyl-5-[[(1S,5R,7s)-3-oxa-9-azabicyclo[3.3.1]nonan-7-yl]oxy]-4-pyridyl]pyrazolo[1,5-a]pyridin-2-amine], half-maximal inhibition (IC50) required 0.00133 µM.
On to `Cc1cc(-c2ccn3nc(NC(=O)C4CC4(F)F)cc3c2)c(OC[C@H]2CCN2C)cn1` (stereo partly drawn) [Example 624, 2,2-difluoro-N-[5-[2-methyl-5-[[(2R)-1-methylazetidin-2-yl]methoxy]-4-pyridyl]pyrazolo[1,5-a]pyridin-2-yl]cyclopropanecarboxamide], for which the IC50 amounted to 0.00329 µM.
The same measure, in the same setting: in the case of `Cc1cc(-c2ccn3nc(Nc4cnn(C)c4)cc3c2)c(O[C@H]2C[C@H]3COC[C@@H](C2)N3C)cn1` [Example 124] it was 0.00124 µM; in that of `Cc1cc(-c2ccn3nc(Nc4ccc(C(=O)N(C)C)cn4)cc3c2)c(O[C@H]2C[C@H]3COC[C@@H](C2)N3)cn1` [Example 383, N,N-dimethyl-6-[[5-[2-methyl-5-[[(1S,5R,7s)-3-oxa-9-azabicyclo[3.3.1]nonan-7-yl]oxy]-4-pyridyl]pyrazolo[1,5-a]pyridin-2-yl]amino]pyridine-3-carboxamide], 0.000947 µM.
The molecule `Cc1cc(-c2ccn3nc(NC(=O)C4CC4)cc3c2)c(OC[C@@H]2CCN2C)cn1` [Example 512, N-[5-[2-methyl-5-[[(2S)-1-methylazetidin-2-yl]methoxy]-4-pyridyl]pyrazolo[1,5-a]pyridin-2-yl]cyclopropanecarboxamide] returned a half-maximal inhibitory concentration (IC50) of 0.0347 µM.
Molecule `Cc1cc(-c2ccn3nc(Nc4ccc(C(=O)NCC(C)(C)C#N)cn4)cc3c2)c(O[C@H]2C[C@H]3COC[C@@H](C2)N3)cn1` [Example 389, N-(2-cyano-2-methyl-propyl)-6-[[5-[2-methyl-5-[[(1S,5R,7s)-3-oxa-9-azabicyclo[3.3.1]nonan-7-yl]oxy]-4-pyridyl]pyrazolo[1,5-a]pyridin-2-yl]amino]pyridine-3-carboxamide] displayed an IC50 of 0.00102 µM.

The same assay, now with this note: enzyme 6 nM, 6 mM ATP and 400 μM HDAC5tide (each 2× final concentration); 30 minutes pre-incubation, 2 hours; ADP-Glo Max luminescence; read-out: SIK2 high ATP IC50 (μM) (Test Example 2).
Turning to `CC(C)(C#N)COc1cnc(OC(F)F)cc1-c1ccn2nc(Nc3cncc(N)n3)cc2c1` [Example 691, 3-[[4-[2-[(6-aminopyrazin-2-yl)amino]pyrazolo[1,5-a]pyridin-5-yl]-6-(difluoromethoxy)-3-pyridyl]oxy]-2,2-dimethyl-propanenitrile], the half-inhibitory concentration (IC50) stood at 0.001 µM.
On the same count and under the same terms, next, `Cc1cc(-c2ccn3nc(NC(=O)C4CC4)cc3c2)c(OCC2(C#N)CCNC2)cn1` (single isomer, unassigned) [Example 210, (*S)—N-[5-[5-[(3-cyanopyrrolidin-3-yl)methoxy]-2-methyl-4-pyridyl]pyrazolo[1,5-a]pyridin-2-yl]cyclopropanecarboxamide]: 0.00307 µM; `Cc1cc(-c2ccn3nc(Nc4cc(C)nc(N5CCOCC5)n4)cc3c2)c(O[C@H]2CC[C@H](O)CC2)cn1` [Example 288, 4-[[6-methyl-4-[2-[(6-methyl-2-morpholino-pyrimidin-4-yl)amino]pyrazolo[1,5-a]pyridin-5-yl]-3-pyridyl]oxy]cyclohexanol]: 0.00696 µM; `N#Cc1ccc(OC[C@H]2CNCCO2)c(-c2ccn3nc(Nc4ccccn4)cc3c2)c1` [Example 478, 4-[[(2R)-morpholin-2-yl]methoxy]-3-[2-(2-pyridylamino)pyrazolo[1,5-a]pyridin-5-yl]benzonitrile]: less than 0.000847 µM.
Still for that read-out and setting: next, `Cc1cnc(Nc2cc3cc(-c4cc(C)ncc4OC[C@@]45CN[C@@H](CO4)C5)ccn3n2)cn1` [Example 257, 5-[2-methyl-5-[[(1R,4R)-5-oxa-2-azabicyclo[2.2.1]heptan-4-yl]methoxy]-4-pyridyl]-N-(5-methylpyrazin-2-yl)pyrazolo[1,5-a]pyridin-2-amine]: 0.00446 µM; `Cc1cc(-c2ccn3nc(Nc4cc(C)c(=O)n(C5CC5)n4)cc3c2)c(OCC(C)(C)C#N)cn1` [Example 316, 3-[[4-[2-[(1-cyclopropyl-5-methyl-6-oxo-pyridazin-3-yl)amino]pyrazolo[1,5-a]pyridin-5-yl]-6-methyl-3-pyridyl]oxy]-2,2-dimethyl-propanenitrile]: less than 0.000847 µM; `COc1cc(Nc2cc3cc(-c4cc(C)ncc4O[C@H]4CC[C@H](O)CC4)ccn3n2)cc(OC)c1C(=O)NC(C)C` [Example 330, 4-[[5-[5-(4-hydroxycyclohexoxy)-2-methyl-4-pyridyl]pyrazolo[1,5-a]pyridin-2-yl]amino]-N-isopropyl-2,6-dimethoxy-benzamide]: 0.028 µM.
On the same count and under the same terms, in the case of `Cc1cc(-c2ccn3nc(Nc4cc(C)nc(C)n4)cc3c2)c(OCCC(C)(C)O)cn1` [Example 555, 4-[[4-[2-[(2,6-dimethylpyrimidin-4-yl)amino]pyrazolo[1,5-a]pyridin-5-yl]-6-methyl-3-pyridyl]oxy]-2-methyl-butan-2-ol] it was 0.00997 µM; in that of `Cc1cc(Nc2cc3cc(-c4cc(O[C@H](C)C#N)ncc4OCC(C)(C)C#N)ccn3n2)nc(C)n1` (single isomer, unassigned) [Example 680, (*R)-3-[[6-(1-cyanoethoxy)-4-[2-[(2,6-dimethylpyrimidin-4-yl)amino]pyrazolo[1,5-a]pyridin-5-yl]-3-pyridyl]oxy]-2,2-dimethyl-propanenitrile], 0.0317 µM; in that of `Cc1cc(-c2ccn3nc(Nc4cccc(C)n4)cc3c2)c(OC[C@@H]2CNCCO2)cn1` [Example 426, 5-[2-methyl-5-[[(2S)-morpholin-2-yl]methoxy]-4-pyridyl]-N-(6-methyl-2-pyridyl)pyrazolo[1,5-a]pyridin-2-amine], 0.00403 µM.
Take `Cc1cc(-c2cn3cc(Nc4cc(C)nc(C)n4)nc3cn2)c(O[C@H]2CC[C@H](O)CC2)cn1` [Example 507, 4-[[4-[2-[(2,6-dimethylpyrimidin-4-yl)amino]imidazo[1,2-a]pyrazin-6-yl]-6-methyl-3-pyridyl]oxy]cyclohexanol]: the half-inhibitory concentration (IC50) was found to be 0.0297 µM.
In the case of `Cc1cc(-c2ccn3nc(Nc4cc(C)c(=O)n(C)n4)cc3c2)c(OCC(C)(C)C#N)cn1` [Example 269, 3-[[4-[2-[(1,5-dimethyl-6-oxo-pyridazin-3-yl)amino]pyrazolo[1,5-a]pyridin-5-yl]-6-methyl-3-pyridyl]oxy]-2,2-dimethyl-propanenitrile], the IC50 was 0.00153 µM.
On the same count and under the same terms, next, `Cc1cc(-c2ccn3nc(Nc4cc(C)c(=O)n(C)n4)cc3c2)c(O[C@H]2CC[C@H](O)CC2)cn1` [Example 226, 6-((5-(5-(((1r,4r)-4-hydroxycyclohexyl)oxy)-2-methylpyridin-4-yl)pyrazolo[1,5-a]pyridin-2-yl)amino)-2,4-dimethylpyridazin-3(2H)-one]: 0.00126 µM; `Cc1cc(-c2ccn3nc(Nc4cc(C)nc(C)n4)cc3c2)c(OC[C@@]2(O)CCCOC2)cn1` (single isomer, unassigned) [Example 216, (*R)-3-[[4-[2-[(2,6-dimethylpyrimidin-4-yl)amino]pyrazolo[1,5-a]pyridin-5-yl]-6-methyl-3-pyridyl]oxymethyl]tetrahydropyran-3-ol]: 0.0311 µM.
`Cc1cc(-c2ccn3nc(NC(=O)C4CC4)cc3c2)c(OCC2(C#N)CNC2)cn1` [Example 221, N-[5-[5-[(3-cyanoazetidin-3-yl)methoxy]-2-methyl-4-pyridyl]pyrazolo[1,5-a]pyridin-2-yl]cyclopropanecarboxamide]: the 50% inhibitory concentration (IC50) was found to be 0.00234 µM.
`CC(C)(C#N)COc1cnc(OC(F)F)cc1-c1ccn2nc(Nc3ccc4c(n3)CNCC4)cc2c1` [Example 719, 3-[[6-(difluoromethoxy)-4-[2-(5,6,7,8-tetrahydro-1,7-naphthyridin-2-ylamino)pyrazolo[1,5-a]pyridin-5-yl]-3-pyridyl]oxy]-2,2-dimethyl-propanenitrile]: the half-maximal inhibitory concentration (IC50) came to 0.0216 µM.
Same read-out and setting: in the case of `Cc1cc(-c2ccn3nc(NC(=O)C4CC4)cc3c2)c(OCC2(O)CCNC2)cn1` (single isomer, unassigned) [Example 223, (*R)—N-[5-[5-[(3-hydroxypyrrolidin-3-yl)methoxy]-2-methyl-4-pyridyl]pyrazolo[1,5-a]pyridin-2-yl]cyclopropanecarboxamide] it was 0.0278 µM; in that of `Cc1cc(-c2ccn3nc(Nc4cc(C)c(C)nn4)cc3c2)c(OCC(C)(C)O)cn1` [Example 201, 1-[[4-[2-[(5,6-dimethylpyridazin-3-yl)amino]pyrazolo[1,5-a]pyridin-5-yl]-6-methyl-3-pyridyl]oxy]-2-methyl-propan-2-ol], 0.0641 µM.
